{"source": "patent US20220370447A1", "about": "“METHOD OF TREATING HBV INFECTION USING A CORE PROTEIN ALLOSTERIC MODULATOR” (Hoffmann-La Roche Inc., priority 2019, published 2022)", "format_in_all_cases": "in vivo, human", "key": {"[1]": {"assay": "Safety and tolerability in chronic hepatitis B patients", "description": "(§1) Three clinical studies (Part 1 and 2 of YP39364 (NCT02952924), YP39406 (NCT03570658), and YP40218 (NCT03717064)) have been completed to characterize the safety, tolerability, pharmacokinetics (PK) and pharmacodynamics (PD) of Compound (I) in both healthy volunteers and CHB patients. […] Thus, there is an unmet medical need for a novel method of treatment with Compound (I) that could achieve a higher rate of functional cure with a finite treatment duration and excellent tolerability.\nIn this invention, methods of Compound (I) monotherapy and Compound (I) in combination with other anti-HBV agents for 12-144 weeks were developed. […] Comparing with current NUC treatment, the current finite treatment methods of this invention minimize the risk of drug resistance and decrease adverse effects of NUC treatment (e.g. the risk of renal injury, bone density loss and creatine kinase elevation, etc)."}, "HBV [2]": {"tested_on": "HBV", "assay": "Completed clinical studies (YP39364 Part 1 and 2, YP39406, YP40218), four-week treatment, PD markers", "conditions": "four-week treatment with Compound (I)", "description": "as §1"}, "HBV [3]": {"tested_on": "HBV", "assay": "Treatment methods of the invention, Compound (I) monotherapy or combination for 12-144 weeks in patients infected with HBV", "description": "Study population: patients infected with HBV (Terrault NA, Lok ASF, McMahon BJ, et al. Update on prevention, diagnosis, and treatment of chronic hepatitis B: AASLD 2018 hepatitis B guidance. Hepatology. 2018; 67:1560-1599.European Association for the Study of the Liver. EASL 2017 Clinical Practice Guidelines on the management of hepatitis B virus infection. J Hepatol. 2017; 67:370-398.).\nGeneral Methods: To explore the effects of Compound (I) on HBsAg loss or decline, Compound (I) is administered following the dose regimen listed in Table 1. The primary measure is the quantitative HBsAg decline or HBsAg loss (<0.05 IU/mL, measured by Elecsys® HBsAg II (Roche)®) at 24 weeks post treatment."}, "[4]": {"conditions": "immune tolerant patients (HBV DNA levels elevated, ALT levels normal)"}}, "data": [{"smiles": "CCOC(=O)C1=C(CN2CCN3C(=O)N(CC(C)(C)C(=O)O)C[C@@H]3C2)NC(c2nccs2)=N[C@H]1c1cccc(F)c1C", "note": "[Compound (I)]", "values": [{"measurement": "Safety and tolerability", "setting": "[1]", "result": "safe and well tolerated"}, {"measurement": "HBV DNA (short-term PD marker)", "setting": "HBV [2]", "result": "robust decline"}, {"measurement": "HBV RNA (short-term PD marker)", "setting": "HBV [2]", "result": "robust decline"}, {"measurement": "HBsAg decline", "setting": "HBV [2]", "result": "significant decline of HBsAg has not been observed"}, {"measurement": "hepatitis B surface antigen (HBsAg) decline or loss", "setting": "HBV [3]; Compound (I) in combination with other anti-HBV agents for 12-144 weeks", "result": "significant hepatitis B surface antigen (HBsAg) decline or loss"}, {"measurement": "HBV DNA decline", "setting": "HBV [3]; [4]", "result": "robust HBV DNA and HBV RNA decline"}, {"measurement": "HBV RNA decline", "setting": "HBV [3]; [4]", "result": "robust HBV DNA and HBV RNA decline"}]}]}
